Experimental data reported in US20080063668A1, “Nitroimidazole and terconazole composition and method” (priority 2006, published 2008).

Columns and labels:
Assay in all cases: Inhibition of bacteria growth, drug dilution tubes, anaerobic
Format in all cases: cell-based
Design in all cases: key to growth: (+) for growth; (−) for no growth; (±) for suboptimal growth after an initial observation of growth
Atopobium vaginae BAA-55 = test system: Atopobium vaginae BAA-55
Description: (§1) Serial dilutions of tinidazole and terconazole were prepared by adding measured amounts of each substance to water (both individually and in combination). Seven bacterial organisms that are common pathogens in bacterial vaginosis were grown anaerobically in the medium as listed in Table 4 under a N2/H2/CO2 (85:5:10) head space atmosphere. [table] These cultures were diluted to a 0.5 McFarland standard prior to inoculation of drug dilution tubes. One (1) mL of the 0.5 McFarland preparation was inoculated to an anaerobically prepared test tube containing 0.8 mL of Difco anaerobic medium (DAMM) and 0.2 mL of appropriate diluted antimicrobial or antimicrobial combination for a total of 2 mL. The inoculated tubes were then incubated at 37° C. and monitored daily for growth. Growth was scored with a (+) for growth, (−) for no growth, and (±) for suboptimal growth after an initial observation of growth. Tinidazole is abbreviated as TNZ and terconazole is abbreviated as TER in Tables 5 through 11.

[1] = test system: Gardnerella vaginalis ATCC 14019
Description: as §1

[2] = test system: Mobiluncus mulieris ATCC 35243
Description: as §1

CC(C)N1CCN(c2ccc(OCC3COC(Cn4cncn4)(c4ccc(Cl)cc4Cl)O3)cc2)CC1 (stereo not drawn) [TER, cis-1-[p[[2-(2,4-dichlorophenyl)-2-(1 H-1,2,4-triazol-1-ylmethyl)-1,3-dioxolan-4-yl]methoxy]phenyl]-4-isopropylpiperazine]
growth (Atopobium vaginae BAA-55; TER 3.1 μg/ml, DAY 1): (+)
growth (Atopobium vaginae BAA-55; TER 3.1 μg/ml, DAY 2): (+)
growth (Atopobium vaginae BAA-55; TER 3.1 μg/ml, DAY 3): (+)
growth (Atopobium vaginae BAA-55; TER 3.1 μg/ml, DAY 4): (+)
growth (Atopobium vaginae BAA-55; TER 3.1 μg/ml, DAY 5): (+)
growth (Atopobium vaginae BAA-55; TER 6.2 μg/ml, DAY 1): (+)
growth (Atopobium vaginae BAA-55; TER 6.2 μg/ml, DAY 2): (+)
growth (Atopobium vaginae BAA-55; TER 6.2 μg/ml, DAY 3): (+)
growth (Atopobium vaginae BAA-55; TER 6.2 μg/ml, DAY 4): (+)
growth (Atopobium vaginae BAA-55; TER 6.2 μg/ml, DAY 5): (+)
growth (Atopobium vaginae BAA-55; TER 12.5 μg/ml, DAY 1): (+)
growth (Atopobium vaginae BAA-55; TER 12.5 μg/ml, DAY 2): (+)
growth (Atopobium vaginae BAA-55; TER 12.5 μg/ml, DAY 3): (+)
growth (Atopobium vaginae BAA-55; TER 12.5 μg/ml, DAY 4): (+)
growth (Atopobium vaginae BAA-55; TER 12.5 μg/ml, DAY 5): (+)
growth (Atopobium vaginae BAA-55; TER 25 μg/ml, DAY 1): (+)
growth (Atopobium vaginae BAA-55; TER 25 μg/ml, DAY 2): (+)
growth (Atopobium vaginae BAA-55; TER 25 μg/ml, DAY 3): (+)
growth (Atopobium vaginae BAA-55; TER 25 μg/ml, DAY 4): (+)
growth (Atopobium vaginae BAA-55; TER 25 μg/ml, DAY 5): (+)
growth (Atopobium vaginae BAA-55; TER 50 μg/ml, DAY 1): (+)
growth (Atopobium vaginae BAA-55; TER 50 μg/ml, DAY 2): (+)
growth (Atopobium vaginae BAA-55; TER 50 μg/ml, DAY 3): (+)
growth (Atopobium vaginae BAA-55; TER 50 μg/ml, DAY 4): (+)
growth (Atopobium vaginae BAA-55; TER 50 μg/ml, DAY 5): (+)
growth (Atopobium vaginae BAA-55; TER 100 μg/ml, DAY 1): (−)
growth (Atopobium vaginae BAA-55; TER 100 μg/ml, DAY 2): (−)
growth (Atopobium vaginae BAA-55; TER 100 μg/ml, DAY 3): (+)
growth (Atopobium vaginae BAA-55; TER 100 μg/ml, DAY 4): (+)
growth (Atopobium vaginae BAA-55; TER 100 μg/ml, DAY 5): (+)
growth (Atopobium vaginae BAA-55; TER 200 μg/ml, DAY 1): (−)
growth (Atopobium vaginae BAA-55; TER 200 μg/ml, DAY 2): (−)
growth (Atopobium vaginae BAA-55; TER 200 μg/ml, DAY 3): (−)
growth (Atopobium vaginae BAA-55; TER 200 μg/ml, DAY 4): (+)
growth (Atopobium vaginae BAA-55; TER 200 μg/ml, DAY 5): (+)
growth (Atopobium vaginae BAA-55; TER 400 μg/ml, DAY 1): (−)
growth (Atopobium vaginae BAA-55; TER 400 μg/ml, DAY 2): (−)
growth (Atopobium vaginae BAA-55; TER 400 μg/ml, DAY 3): (−)
growth (Atopobium vaginae BAA-55; TER 400 μg/ml, DAY 4): (−)
growth (Atopobium vaginae BAA-55; TER 400 μg/ml, DAY 5): (−)
growth (Atopobium vaginae BAA-55; TER 800 μg/ml, DAY 1): (−)
growth (Atopobium vaginae BAA-55; TER 800 μg/ml, DAY 2): (−)
growth (Atopobium vaginae BAA-55; TER 800 μg/ml, DAY 3): (−)
growth (Atopobium vaginae BAA-55; TER 800 μg/ml, DAY 4): (−)
growth (Atopobium vaginae BAA-55; TER 800 μg/ml, DAY 5): (−)
antibacterial activity compared with tinidazole (Atopobium vaginae BAA-55; Tables 6 through 11): superior to the antibacterial compound tinidazole
antibacterial activity compared with tinidazole [1]: superior to the antibacterial compound tinidazole
growth ([1]; TER 3.1 μg/ml, DAY 1): (+)
growth ([1]; TER 3.1 μg/ml, DAY 2): (+)
growth ([1]; TER 3.1 μg/ml, DAY 3): (+)
growth ([1]; TER 3.1 μg/ml, DAY 4): (+)
growth ([1]; TER 3.1 μg/ml, DAY 5): (+)
growth ([1]; TER 6.2 μg/ml, DAY 1): (+)
growth ([1]; TER 6.2 μg/ml, DAY 2): (+)
growth ([1]; TER 6.2 μg/ml, DAY 3): (+)
growth ([1]; TER 6.2 μg/ml, DAY 4): (+)
growth ([1]; TER 6.2 μg/ml, DAY 5): (+)
growth ([1]; TER 12.5 μg/ml, DAY 1): (+)
growth ([1]; TER 12.5 μg/ml, DAY 2): (+)
growth ([1]; TER 12.5 μg/ml, DAY 3): (+)
growth ([1]; TER 12.5 μg/ml, DAY 4): (+)
growth ([1]; TER 12.5 μg/ml, DAY 5): (+)
growth ([1]; TER 25 μg/ml, DAY 1): (+)
growth ([1]; TER 25 μg/ml, DAY 2): (+)
growth ([1]; TER 25 μg/ml, DAY 3): (+)
growth ([1]; TER 25 μg/ml, DAY 4): (+)
growth ([1]; TER 25 μg/ml, DAY 5): (+)
growth ([1]; TER 50 μg/ml, DAY 1): (+)
growth ([1]; TER 50 μg/ml, DAY 2): (+)
growth ([1]; TER 50 μg/ml, DAY 3): (+)
growth ([1]; TER 50 μg/ml, DAY 4): (+)
growth ([1]; TER 50 μg/ml, DAY 5): (+)
growth ([1]; TER 100 μg/ml, DAY 1): (+)
growth ([1]; TER 100 μg/ml, DAY 2): (+)
growth ([1]; TER 100 μg/ml, DAY 3): (+)
growth ([1]; TER 100 μg/ml, DAY 4): (+)
growth ([1]; TER 100 μg/ml, DAY 5): (+)
growth ([1]; TER 200 μg/ml, DAY 1): (+)
growth ([1]; TER 200 μg/ml, DAY 2): (+)
growth ([1]; TER 200 μg/ml, DAY 3): (+)
growth ([1]; TER 200 μg/ml, DAY 4): (+)
growth ([1]; TER 200 μg/ml, DAY 5): (+)
growth ([1]; TER 400 μg/ml, DAY 1): (+)
growth ([1]; TER 400 μg/ml, DAY 2): (+)
growth ([1]; TER 400 μg/ml, DAY 3): (+)
growth ([1]; TER 400 μg/ml, DAY 4): (+)
growth ([1]; TER 400 μg/ml, DAY 5): (+)
growth ([1]; TER 800 μg/ml, DAY 1): (−)
growth ([1]; TER 800 μg/ml, DAY 2): (−)
growth ([1]; TER 800 μg/ml, DAY 3): (−)
growth ([1]; TER 800 μg/ml, DAY 4): (−)
growth ([1]; TER 800 μg/ml, DAY 5): (−)
growth ([2]; TER 3.1 μg/ml, DAY 1): (+)
growth ([2]; TER 3.1 μg/ml, DAY 2): (+)
growth ([2]; TER 3.1 μg/ml, DAY 3): (+)
growth ([2]; TER 3.1 μg/ml, DAY 4): (+)
growth ([2]; TER 3.1 μg/ml, DAY 5): (+)
growth ([2]; TER 6.2 μg/ml, DAY 1): (+)
growth ([2]; TER 6.2 μg/ml, DAY 2): (+)
growth ([2]; TER 6.2 μg/ml, DAY 3): (+)
growth ([2]; TER 6.2 μg/ml, DAY 4): (+)
growth ([2]; TER 6.2 μg/ml, DAY 5): (+)
growth ([2]; TER 12.5 μg/ml, DAY 1): (+)
growth ([2]; TER 12.5 μg/ml, DAY 2): (+)
growth ([2]; TER 12.5 μg/ml, DAY 3): (+)
growth ([2]; TER 12.5 μg/ml, DAY 4): (+)
growth ([2]; TER 12.5 μg/ml, DAY 5): (+)
growth ([2]; TER 25 μg/ml, DAY 1): (+)
growth ([2]; TER 25 μg/ml, DAY 2): (+)
growth ([2]; TER 25 μg/ml, DAY 3): (+)
growth ([2]; TER 25 μg/ml, DAY 4): (+)
growth ([2]; TER 25 μg/ml, DAY 5): (+)
growth ([2]; TER 50 μg/ml, DAY 1): (+)
growth ([2]; TER 50 μg/ml, DAY 2): (+)
growth ([2]; TER 50 μg/ml, DAY 3): (+)
growth ([2]; TER 50 μg/ml, DAY 4): (+)
growth ([2]; TER 50 μg/ml, DAY 5): (+)
growth ([2]; TER 100 μg/ml, DAY 1): (+)
growth ([2]; TER 100 μg/ml, DAY 2): (+)
growth ([2]; TER 100 μg/ml, DAY 3): (+)
growth ([2]; TER 100 μg/ml, DAY 4): (+)
growth ([2]; TER 100 μg/ml, DAY 5): (+)
growth ([2]; TER 200 μg/ml, DAY 1): (+)
growth ([2]; TER 200 μg/ml, DAY 2): (+)
growth ([2]; TER 200 μg/ml, DAY 3): (+)
growth ([2]; TER 200 μg/ml, DAY 4): (+)
growth ([2]; TER 200 μg/ml, DAY 5): (+)
growth ([2]; TER 400 μg/ml, DAY 1): (−)
growth ([2]; TER 400 μg/ml, DAY 2): (−)
growth ([2]; TER 400 μg/ml, DAY 3): (−)
growth ([2]; TER 400 μg/ml, DAY 4): (−)
growth ([2]; TER 400 μg/ml, DAY 5): (−)
growth ([2]; TER 800 μg/ml, DAY 1): (−)
growth ([2]; TER 800 μg/ml, DAY 2): (−)
growth ([2]; TER 800 μg/ml, DAY 3): (−)
growth ([2]; TER 800 μg/ml, DAY 4): (−)
growth ([2]; TER 800 μg/ml, DAY 5): (−)
antibacterial activity compared with tinidazole ([2]; Tables 6 through 11): superior to the antibacterial compound tinidazole
